Experimental data: patent US20160374944A1, “COMPOSITIONS AND METHODS FOR TREATING AND PREVENTING CANCER BY TARGETING AND INHIBITING CANCER STEM CELLS” (priority 2011, published 2016)

Columns and labels:
[1] = system: Pancreatic CSCs; experiment: Matrigel invasion assay; assay type: cell-based, human
Experimental: (A and B) Pancreatic CSCs were treated with rottlerin (0-1 μM) for 24 h. The expression of Zeb-1 and Slug was measured by the qRT-PCR and normalized to GAPDH. […] (C) In vitro Matrigel invasion assay. CSCs were plated onto the Matrigel-coated membrane in the top chamber of the transwell and treated with rottlerin (0-2 μM) for 48 h. Cells invaded to the lower chamber were fixed with methanol, stained with crystal violet and photo micrographed.
(A) Pancreatic CSCs were treated with EGCG (0-60 μM) for 48 h. At the end of incubation period, the expression of Snail, ZEB1 and Slug was measured by q-RT-PCR. […] (B) Transwell migration assay. Pancreatic CSCs were plated in the top chamber of the transwell and treated with EGCG (0-60 μM) for 24 h. Cells migrated to the lower chambered were fixed with methanol, stained with crystal violet and counted. […] (C) Matrigel invasion assay. CSCs were plated onto the Matrigel-coated membrane in the top chamber of the transwell and treated with EGCG (0-60 μM) for 48 h. Cells invaded to the lower chambered were fixed with methanol, stained with crystal violet and counted. […] (D) Effects of EGCG on TCF-1/LEF activity. Pancreatic CSCs were transduced with TCF/LEF responsive GFP/firefly luciferase viral particles (pGreen Fire1-Gli with EF1, System Biosciences). Transduced CSCs were treated with EGCG (0-60) for 48 h and the GFP fluorescence was measured.
FIG. 42A and FIG. 42B show graphs showing quercetin synergizes with EGCG to inhibit self-renewal capacity, invasion, migration, and TCF/LEF and Gli transcriptional activities in pancreatic CSCs. (A) Effects of EGCG and quercetin on spheroid and colony formation. Upper Panel, uercetin synergizes with EGCG to inhibit spheroid's cell viability. CSCs were seeded in suspension and treated with EGCG (0-60 μM) with or without quercetin (20 μM) for 7 days. At the end of incubation period, all the spheroids were collected and resuspended. Cell viability was measured by trypan blue assay. […] Lower panel, uercetin synergizes with EGCG to inhibit colony formation. Pancreatic CSCs were seeded in soft agar and treated with various doses of EGCG (0-60 μM) with or without quercetin (20 μM) and incubated at […] for 21 days. At the end of incubation period, colonies were counted. […] (B) Effects of EGCG and quercetin on invasion and migration. Upper panel, Matrigel invasion assay. […] Cells invaded to the lower chambered were fixed with methanol, stained with crystal violet and counted. […] Cells migrated to the lower chambered were fixed with methanol, stained with crystal violet and counted. […] Apoptosis was measured by TUNEL assay. […] Transduced CSCs were treated with EGCG (40 μM) with or without quercetin (20 μM) for 48 hrs and the luciferase activity was measured.

[2] = system: Pancreatic CSCs; experiment: spheroid formation and cell viability in spheroids (trypan blue); assay type: cell-based, human; conditions: for cell viability in spheroids: EGCG 0-60 μM with or without quercetin 20 μM
Experimental: (A) Pancreatic CSCs were grown in six-well ultralow attachment plates (Corning Inc., Corning, N.Y.) at a density of 1,000 cells/ml in DMEM supplemented with 1% N2 Supplement (Invitrogen), 2% B27 Supplement (Invitrogen), 20 ng/ml human platelet growth factor (Sigma-Aldrich), 100 ng/ml EGF (Invitrogen) and 1% antibiotic-antimycotic (Invitrogen) at 37° C. in a humidified atmosphere of 95% air and 5% CO2 and treated with rottlerin (0-2 μM) for 7 days to obtain primary spheroids. At the end of incubation period, spheroids were collected, reseeded and treated with rottlerin for another week to obtain secondary spheroids. (B) Cell viability in spheroids was measured by trypan blue assay at the end of 7 and 14 days from the above experiment.
(A) Pancreatic CSCs were seeded in suspension and treated with EGCG (0-60 μM) for 7 days. Pictures of spheroids formed in suspension were taken by a microscope. (B) Pancreatic CSCs were seeded in suspension and treated with EGCG (0-60 μM) for 7 days. At the end of incubation period, spheroids were collected, and dissociated with Accutase (Innovative Cell Technologies, Inc.). For secondary spheroids, cells were reseeded and treated with EGCG (0-60 μM) for 7 days. Cell viability was measured by trypan blue assay. […] Pancreatic CSCs were seeded in soft agar and treated with various doses of EGCG and incubated at […] for 21 days. At the end of incubation period, colonies were counted.
(A) Pancreatic CSCs were treated with EGCG (0-60 μM) for 36 h. At the end of incubation period, cells were harvested and the expression of Nanog, Sox-2, c-Myc and Oct-4 was measured by the q-RT-PCR. […] Pancreatic CSCs were transduced with either scrambled shRNA or Nanog shRNA expressing lentiviral vector (pLKO.1), and cell lysates were collected and western blot analysis was performed using anti-Nanog antibody (data not shown). CSC/scrambled and CSC/Nanog shRNA were seeded as described above and treated with EGCG (0-60 μM). After 7 days, spheroids were collected and cell suspensions were prepared and viable cells were counted by trypan blue assay.
(A) Effects of EGCG and quercetin on spheroid and colony formation. […] CSCs were seeded in suspension and treated with EGCG (0-60 μM) with or without quercetin (20 μM) for 7 days. At the end of incubation period, all the spheroids were collected and resuspended. Cell viability was measured by trypan blue assay. […] Pancreatic CSCs were seeded in soft agar and treated with various doses of EGCG (0-60 μM) with or without quercetin (20 μM) and incubated at […] for 21 days. At the end of incubation period, colonies were counted. […] (B) Effects of EGCG and quercetin on invasion and migration. Upper panel, Matrigel invasion assay. CSCs were plated onto the Matrigel-coated membrane in the top chamber of the transwell and treated with EGCG (0-60 μM) with or without quercetin (20 μM) for 48 hrs. Cells invaded to the lower chambered were fixed with methanol, stained with crystal violet and counted. […] Lower panel, Transwell migration assay. Pancreatic CSCs were plated in the top chamber of the transwell and treated with EGCG (0-60 μM) with or without quercetin (20 μM) for 48 hrs. Cells migrated to the lower chambered were fixed with methanol, stained with crystal violet and counted. […] CSCs were seeded in suspension and treated with EGCG (0-60 μM) with or without quercetin (20 μM) for 7 days. At the end of incubation period, all the spheroids were collected.

[3] = EGCG 0-60 μM with or without quercetin 20 μM, 48 hrs

Compound | invasion [1, 3] | cell viability in spheroids ([2]; 7 days) | invasion ([1]; EGCG 0-60 μM, 48 h) | CSC viability in spheroids ([2]; CSCs transduced with Nanog shRNA, EGCG 0-60 μM, 7 days) | CSC viability in spheroids ([2]; CSCs transduced with scrambled shRNA, EGCG 0-60 μM, 7 days) | growth (size) of spheroids in suspension ([2]; EGCG 0-60 μM, 7 days) | CSC viability in primary and secondary spheroids ([2]; EGCG 0-60 μM, 7 days each, trypan blue) | in vitro invasion ([1]; rottlerin 0-2 μM, 48 h, Matrigel) | size of primary and secondary spheroids in suspension ([2]; rottlerin 0-2 μM, 7 and 14 days) | cell viability of spheroids ([2]; rottlerin 0-2 μM, 7 and 14 days, trypan blue)
O=c1c(O)c(-c2ccc(O)c(O)c2)oc2cc(O)cc(O)c12 [quercetin] | effective alone | effective alone |  |  |  |  |  |  |  | 
O=C(O[C@@H]1Cc2c(O)cc(O)cc2O[C@@H]1c1cc(O)c(O)c(O)c1)c1cc(O)c(O)c(O)c1 [EGCG, epigallocatechin gallate] | inhibited cell viability in spheroids, colony formation, migration and invasion by CSCs in a dose-dependent manner | inhibited cell viability in spheroids, colony formation, migration and invasion by CSCs in a dose-dependent manner | inhibited | further enhanced the antiproliferative effects | inhibited CSC's viability in spheroids transduced with Nanog-scrambled shRNA in a dose-dependent manner | inhibited the growth (size) of spheroids in suspension in a dose dependent manner | inhibited CSC's viability in primary and secondary spheroids in a dose-dependent manner |  |  | 
CC(=O)c1c(O)c(C)c(O)c(Cc2c(O)c3c(c(C(=O)/C=C/c4ccccc4)c2O)OC(C)(C)C=C3)c1O [rottlerin] |  |  |  |  |  |  |  | inhibited the in vitro invasion | inhibited the size | inhibited
